Reference: US12581252B2, “Substituted pyrrolo[3,4-b]pyridines as PI3K-α inhibitors” (Relay Therapeutics, Inc., priority 2020, dated 2026)

Biological target: H1047R PIK3CA enzyme (Homo sapiens, UniProt P42336, H1047R)
Assay: ADP-Glo Biochemical PIK3CA Kinase Assay

Chain of H1047R PIK3CA enzyme (P42336 whole entry H1047R): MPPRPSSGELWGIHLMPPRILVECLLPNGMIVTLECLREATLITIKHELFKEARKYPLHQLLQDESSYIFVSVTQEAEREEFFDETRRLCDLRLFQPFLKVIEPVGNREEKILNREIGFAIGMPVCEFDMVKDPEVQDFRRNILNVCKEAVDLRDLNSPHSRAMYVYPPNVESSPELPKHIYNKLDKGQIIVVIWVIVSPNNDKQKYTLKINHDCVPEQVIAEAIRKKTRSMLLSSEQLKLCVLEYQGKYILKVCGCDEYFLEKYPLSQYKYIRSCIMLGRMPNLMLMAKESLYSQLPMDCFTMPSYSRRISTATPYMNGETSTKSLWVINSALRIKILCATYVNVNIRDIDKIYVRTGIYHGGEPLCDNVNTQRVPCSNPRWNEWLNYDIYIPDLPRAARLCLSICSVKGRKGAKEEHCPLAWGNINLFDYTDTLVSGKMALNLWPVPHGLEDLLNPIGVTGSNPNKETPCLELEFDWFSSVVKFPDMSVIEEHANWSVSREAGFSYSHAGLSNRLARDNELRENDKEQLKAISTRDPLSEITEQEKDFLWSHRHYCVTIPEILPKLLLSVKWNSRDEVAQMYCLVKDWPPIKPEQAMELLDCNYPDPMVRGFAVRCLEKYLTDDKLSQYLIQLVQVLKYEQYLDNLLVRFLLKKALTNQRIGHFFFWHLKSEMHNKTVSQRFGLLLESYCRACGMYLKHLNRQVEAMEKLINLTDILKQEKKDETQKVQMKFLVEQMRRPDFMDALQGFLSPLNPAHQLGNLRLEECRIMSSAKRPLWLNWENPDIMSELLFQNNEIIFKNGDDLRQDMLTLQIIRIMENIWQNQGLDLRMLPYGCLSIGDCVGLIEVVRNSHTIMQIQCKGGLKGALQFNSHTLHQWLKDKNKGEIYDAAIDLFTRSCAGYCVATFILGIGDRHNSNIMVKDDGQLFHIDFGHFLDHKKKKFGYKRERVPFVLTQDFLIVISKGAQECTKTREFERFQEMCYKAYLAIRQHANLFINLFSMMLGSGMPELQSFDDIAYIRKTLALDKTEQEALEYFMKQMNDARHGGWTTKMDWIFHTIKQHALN
Chain of H1047R PIK3CA enzyme (P27986 whole entry partner): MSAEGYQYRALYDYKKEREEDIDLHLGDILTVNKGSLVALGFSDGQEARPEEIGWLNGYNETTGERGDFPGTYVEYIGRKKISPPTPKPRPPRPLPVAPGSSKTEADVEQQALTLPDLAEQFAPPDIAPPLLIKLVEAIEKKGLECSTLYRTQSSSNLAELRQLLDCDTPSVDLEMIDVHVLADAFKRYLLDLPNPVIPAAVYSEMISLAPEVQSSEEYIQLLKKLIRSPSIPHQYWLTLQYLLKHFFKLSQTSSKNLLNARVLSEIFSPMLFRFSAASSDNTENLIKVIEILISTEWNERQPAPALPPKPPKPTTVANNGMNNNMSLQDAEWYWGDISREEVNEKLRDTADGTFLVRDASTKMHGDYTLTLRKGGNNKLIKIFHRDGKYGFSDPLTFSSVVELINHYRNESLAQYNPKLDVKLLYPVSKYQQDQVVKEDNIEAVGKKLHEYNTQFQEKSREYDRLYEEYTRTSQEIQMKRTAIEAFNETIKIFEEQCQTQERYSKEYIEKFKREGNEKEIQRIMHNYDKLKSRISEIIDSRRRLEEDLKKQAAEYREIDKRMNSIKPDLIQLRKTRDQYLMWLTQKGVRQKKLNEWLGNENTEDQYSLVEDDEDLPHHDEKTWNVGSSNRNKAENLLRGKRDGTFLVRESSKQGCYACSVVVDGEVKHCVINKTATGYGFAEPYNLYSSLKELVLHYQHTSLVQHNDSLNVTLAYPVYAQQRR

| SMILES | IC50 [nM] |
| --- | --- |
| O=C(Nc1cc(-n2cc(F)cn2)nc2c1C(c1cc(F)ccc1Cl)NC2=O)c1cc(F)cc(C(F)(F)F)c1 (stereo not shown) [Compound I-354] | 100 to 500 |
| CC(C)(O)c1cc(NC(=O)c2cc(F)cc(C(F)(F)F)c2)c2c(c1)C(=O)NC2c1ccccc1C(F)F (stereo not shown) [Compound I-355] | ≤ 100 |
| CC(C)(O)c1cc(NC(=O)c2nsc3ccccc23)c2c(c1)C(=O)NC2c1ccccc1C(F)F (stereo not shown) [Compound I-356] | ≤ 100 |
| O=C(Nc1cc(N2CCC(F)(F)C2)nc2c1C(c1cc(F)ccc1Cl)NC2=O)c1cc(F)cc(C(F)(F)F)c1 (stereo not shown) [Compound I-357] | ≤ 100 |
| O=C(Nc1cc(N2CCOCC2)nc2c1C(c1cc(F)ccc1Cl)NC2=O)c1cc(F)cc(C(F)(F)F)c1 (stereo not shown) [Compound I-358] | ≤ 100 |
| O=C(Nc1cc(NC2CCC(O)C2)cc2c1C(c1cc(F)ccc1Cl)NC2=O)c1cc(F)cc(C(F)(F)F)c1 (stereo not shown) [Compound I-359] | ≤ 100 |
| O=C(CCC(F)F)Nc1cc(NC(=O)c2cc(F)cc(C(F)(F)F)c2)c2c(c1)C(=O)NC2c1cc(F)ccc1Cl (stereo not shown) [Compound I-360] | ≤ 100 |
| O=C(Nc1cc(NC(=O)C2CCO2)cc2c1C(c1cc(F)ccc1Cl)NC2=O)c1cc(F)cc(C(F)(F)F)c1 (stereo not shown) [Compound I-361] | ≤ 100 |
| O=C(Nc1cc(B(O)O)cc2c1C(c1cc(F)ccc1Cl)NC2=O)c1cc(F)cc(C(F)(F)F)c1 (stereo not shown) [Compound I-362] | ≤ 100 |
| O=C(Nc1cc(O)cc2c1C(c1cc(F)ccc1Cl)NC2=O)c1cc(F)cc(C(F)(F)F)c1 (stereo not shown) [Compound I-363] | ≤ 100 |
| O=C(Nc1cc(C2CCCO2)cc2c1C(c1cc(F)ccc1Cl)NC2=O)c1cc(F)cc(C(F)(F)F)c1 (stereo not shown) [Compound I-364] | ≤ 100 |
| Cc1ccccc1C1NC(=O)c2c(P(C)(C)=O)ccc(NC(=O)c3cc(F)cc(C(F)(F)F)c3)c21 (stereo not shown) [Compound I-365] | 1000 to 10000 |
| O=C(Nc1cc(N2CC(F)(F)C2)nc2c1[C@H](c1cc(F)ccc1Cl)NC2=O)c1cc(F)cc(C(F)(F)F)c1 [Compound I-366] | ≤ 100 |
| O=C(Nc1cc(N2CC(F)(F)C2)nc2c1[C@@H](c1cc(F)ccc1Cl)NC2=O)c1cc(F)cc(C(F)(F)F)c1 [Compound I-367] | 1000 to 10000 |
| CC1(F)CN(c2cc(NC(=O)c3cc(F)cc(C(F)(F)F)c3)c3c(n2)C(=O)NC3c2cc(F)ccc2Cl)C1 (stereo not shown) [Compound I-368] | 100 to 500 |
| Cc1ccccc1C1NC(=O)c2cccc(NC(=O)c3cc(C(F)(F)F)ccc3F)c21 (stereo not shown) [Compound I-369] | 1000 to 10000 |
| O=C(Nc1cc(N2CC(F)(F)C2)cc2c1C(c1cc(F)ccc1Cl)NC2=O)c1cc(F)cc(C(F)(F)F)c1 (stereo not shown) [Compound I-370] | ≤ 100 |
| O=C(Nc1cccc2c1C(c1ccc3ccccc3c1)NC2=O)c1cc(F)cc(C(F)(F)F)c1 (stereo not shown) [Compound I-371] | 10000 to 100000 |
| O=C(Nc1cccc2c1C(c1cc(F)ccc1Cl)NC2=O)c1cc(F)cc(C(F)(F)F)c1 (stereo not shown) [Compound I-372] | ≤ 100 |
| COC(=O)c1cc(NC(=O)c2cc(F)cc(C(F)(F)F)c2)c2c(c1)C(=O)NC2c1cc(F)ccc1Cl (stereo not shown) [Compound I-373] | ≤ 100 |
| O=C(Nc1cc(C2(O)CC2)cc2c1C(c1cc(F)ccc1Cl)NC2=O)c1cc(F)cc(C(F)(F)F)c1 (stereo not shown) [Compound I-374, N-[3-(2-chloro-5-fluorophenyl)-6-(1-hydroxycyclopropyl)-1-oxo-2,3-dihydro-1H-isoindol-4-yl]-3-fluoro-5-(trifluoromethyl)benzamide] | ≤ 100 |
| Cc1ccccc1C1NC(=O)c2cccc(NC(=O)c3nsc4ccc(Br)cc34)c21 (stereo not shown) [Compound I-376] | 500 to 1000 |
| Cc1ccccc1C1NC(=O)c2cccc(NC(=O)c3nsc4ccc(C#N)cc34)c21 (stereo not shown) [Compound I-377] | 1000 to 10000 |
| Cc1ccccc1C1NC(=O)c2cccc(NC(=O)c3nsc4ccc(-c5ccccc5)cc34)c21 (stereo not shown) [Compound I-378] | 1000 to 10000 |

| SMILES | IC50 [nM] |
| --- | --- |
| Cn1cc(-c2cc(NC(=O)c3cc(F)cc(Cl)c3)c3c(n2)C(=O)NC3c2cc(F)ccc2Cl)cn1 (stereo not shown) [Compound I-379] | 100 to 500 |
| Cc1nn(C)cc1-c1cc(NC(=O)c2cc(F)cc(Cl)c2)c2c(n1)C(=O)NC2c1cc(F)ccc1Cl (stereo not shown) [Compound I-380] | 100 to 500 |
| Cc1c(-c2cc(NC(=O)c3cc(F)cc(Cl)c3)c3c(n2)C(=O)NC3c2cc(F)ccc2Cl)cnn1C (stereo not shown) [Compound I-381] | 100 to 500 |
| CC(O)(CO)c1cc(NC(=O)c2cc(F)cc(C(F)(F)F)c2)c2c(c1)C(=O)NC2c1cc(F)ccc1Cl (stereo not shown) [Compound I-382] | 100 to 500 |
| O=C(Nc1cc(O)cc2c1C(c1cc(F)ccc1Cl)NC2=O)c1cc(F)cc(Cl)c1 (stereo not shown) [Compound I-383] | ≤ 100 |
| Cn1cc(-c2cc(NC(=O)c3cc(F)cc(Cl)c3)c3c(n2)C(=O)N[C@@H]3c2cc(F)ccc2Cl)cn1 [Compound I-384] | 1000 to 10000 |
| O=C(Nc1cc(B(O)O)cc2c1C(c1cc(F)ccc1Cl)NC2=O)c1cc(F)cc(Cl)c1 (stereo not shown) [Compound I-385] | ≤ 100 |
| Cn1cc(-c2cc(NC(=O)c3cc(F)cc(Cl)c3)c3c(n2)C(=O)N[C@H]3c2cc(F)ccc2Cl)cn1 [Compound I-386] | ≤ 100 |
| O=C(Nc1cc(Br)cc2c1[C@@H](c1cc(F)ccc1Cl)NC2=O)c1cc(F)cc(C(F)(F)F)c1 [Compound I-387] | 1000 to 10000 |
| O=C(Nc1cc(NC(=O)C2CNC2)cc2c1C(c1cc(F)ccc1Cl)NC2=O)c1cc(F)cc(C(F)(F)F)c1 (stereo not shown) [Compound I-389] | 100 to 500 |
| O=C(Nc1cccc2c1C(c1cccc(F)c1)NC2=O)c1cc(F)cc(C(F)(F)F)c1 (stereo not shown) [Compound I-390] | 1000 to 10000 |
| Cc1ccccc1C1NC(=O)c2cccc(NC(=O)c3cc(F)cc(Br)c3)c21 (stereo not shown) [Compound I-391] | 500 to 1000 |
| O=C1NC(c2ccc3ccccc3c2)c2c(NC(=O)c3nsc4ccccc34)cccc21 (stereo not shown) [Compound I-392] | 10000 to 100000 |
| Nc1cc(NC(=O)c2cc(F)cc(C(F)(F)F)c2)c2c(c1)C(=O)NC2c1ccccc1Cl (stereo not shown) [Compound I-393] | ≤ 100 |
| O=C(Nc1cc(Br)cc2c1C(c1ccccc1Cl)NC2=O)c1cc(F)cc(C(F)(F)F)c1 (stereo not shown) [Compound I-394] | 100 to 500 |
| CP(C)(=O)c1cc(NC(=O)c2cc(F)cc(C(F)(F)F)c2)c2c(c1)C(=O)NC2c1cc(F)ccc1Cl (stereo not shown) [Compound I-395] | ≤ 100 |
| Cc1ccccc1[C@H]1NC(=O)c2c(C#N)ccc(NC(=O)c3cc(F)cc(C(F)(F)F)c3)c21 [Compound I-397] | 100 to 500 |
| Cc1ccccc1C1NC(=O)c2cccc(-c3nnc(-c4ccccc4)[nH]3)c21 (stereo not shown) [Compound I-398] | 10000 to 100000 |
| O=C(O)Cc1cc(NC(=O)c2cc(F)cc(C(F)(F)F)c2)c2c(c1)C(=O)NC2c1cc(F)ccc1Cl (stereo not shown) [Compound I-399] | ≤ 100 |
| Cc1ccccc1C1NC(=O)c2cccc(NC(=O)c3nnc4ccc(Cl)cn34)c21 (stereo not shown) [Compound I-400] | 10000 to 100000 |
| O=C(Nc1cccc2c1C(c1cc(Cl)cc(F)c1F)NC2=O)c1cc(F)cc(C(F)(F)F)c1 (stereo not shown) [Compound I-401] | 100 to 500 |
| O=C1NCc2c(NC(=O)c3coc4ccc(Cl)cc34)cccc21 [Compound I-402] | 10000 to 100000 |
| Cn1cc(C(=O)Nc2cccc3c2CNC3=O)c2ccccc21 [Compound I-403] | 10000 to 100000 |
| O=C1NCc2c(NC(=O)c3csc4c3CCCC4)cccc21 [Compound I-404] | 10000 to 100000 |

| SMILES | IC50 [nM] |
| --- | --- |
| Cc1ccc2c(c1)N(C(=O)Nc1cccc3c1CN(C)C3=O)CC2 [Compound I-405] | 10000 to 100000 |
| C=CC(=O)Nc1cc(NC(=O)c2cc(F)cc(C(F)(F)F)c2)c2c(c1)C(=O)NC2c1cc(F)ccc1Cl (stereo not shown) [Compound I-406] | ≤ 100 |
| O=C(CCl)Nc1cc(NC(=O)c2cc(F)cc(C(F)(F)F)c2)c2c(c1)C(=O)NC2c1cc(F)ccc1Cl (stereo not shown) [Compound I-407] | ≤ 100 |
| Cc1ccccc1C1NC(=O)c2cccc(NC(=O)c3cc(F)cc4c(C(=O)C(F)(F)F)c[nH]c34)c21 (stereo not shown) [Compound I-408] | 10000 to 100000 |
| O=C(Nc1cccc2c1C(c1ccc(Br)cc1Cl)NC2=O)c1cc(F)cc(C(F)(F)F)c1 (stereo not shown) [Compound I-409] | 1000 to 10000 |
| Cc1nn(C)c(C)c1-c1cc(NC(=O)c2cc(F)cc(Cl)c2)c2c(n1)C(=O)NC2c1cc(F)ccc1Cl (stereo not shown) [Compound I-410] | 500 to 1000 |
| Cc1ccccc1C1NC(=O)c2cccc(NC(=O)c3n[nH]cc3Br)c21 (stereo not shown) [Compound I-411] | 10000 to 100000 |
| Cc1ccccc1C1NC(=O)c2cccc(NC(=O)c3n[nH]cc3-c3ccccc3)c21 (stereo not shown) [Compound I-412] | 10000 to 100000 |
| Cc1ccccc1C1NC(=O)c2cccc(NC(=O)c3nscc3-c3ccccc3)c21 (stereo not shown) [Compound I-413] | 1000 to 10000 |
| O=C(Nc1cccc2c1C(c1cc(Br)ccc1Cl)NC2=O)c1cc(O)cc(C(F)(F)F)c1 (stereo not shown) [Compound I-414] | 100 to 500 |
| O=C(Nc1cccc2c1C(c1cc(O)ccc1Cl)NC2=O)c1cc(O)cc(C(F)(F)F)c1 (stereo not shown) [Compound I-415] | 10000 to 100000 |
| NC1CN(c2cc(NC(=O)c3cc(F)cc(C(F)(F)F)c3)c3c(n2)C(=O)NC3c2cc(F)ccc2Cl)C1 (stereo not shown) [Compound I-417] | 100 to 500 |
| CS(=O)(=O)C1CN(c2cc(NC(=O)c3cc(F)cc(C(F)(F)F)c3)c3c(n2)C(=O)NC3c2cc(F)ccc2Cl)C1 (stereo not shown) [Compound I-418] | 100 to 500 |
| Cc1ccccc1C1NC(=O)c2cc(C3(O)CCC3)cc(NC(=O)c3nsc4ccccc34)c21 (stereo not shown) [Compound I-419] | ≤ 100 |
| O=C(Nc1cc(C2COC2)cc2c1C(c1cc(F)ccc1Cl)NC2=O)c1cc(F)cc(C(F)(F)F)c1 (stereo not shown) [Compound I-420] | ≤ 100 |
| O=C(Nc1cccc2c1C(c1ccc(-c3ccccc3)cc1Cl)NC2=O)c1cc(F)cc(C(F)(F)F)c1 (stereo not shown) [Compound I-421] | 1000 to 10000 |
| N#Cc1ccc(C2NC(=O)c3cccc(NC(=O)c4cc(F)cc(C(F)(F)F)c4)c32)c(Cl)c1 (stereo not shown) [Compound I-422] | 10000 to 100000 |
| CC(=O)Nc1cc(NC(=O)c2cc(F)cc(C(F)(F)F)c2)c2c(c1)C(=O)NC2c1cc(F)ccc1Cl (stereo not shown) [Compound I-423] | ≤ 100 |
| O=C(Nc1cccc2c1C(c1ccc(C3CC3)cc1Cl)NC2=O)c1cc(F)cc(C(F)(F)F)c1 (stereo not shown) [Compound I-424] | 1000 to 10000 |
| Cn1cc(-c2ccc(C3NC(=O)c4cccc(NC(=O)c5cc(F)cc(C(F)(F)F)c5)c43)c(Cl)c2)cn1 (stereo not shown) [Compound I-425] | 10000 to 100000 |
| CC(C)(C(=O)O)c1cc(NC(=O)c2cc(F)cc(C(F)(F)F)c2)c2c(c1)C(=O)NC2c1cc(F)ccc1Cl (stereo not shown) [Compound I-427] | 100 to 500 |
| O=C(Nc1cccc2c1C(c1cc(O)ccc1Cl)NC2=O)c1cc(F)cc(C(F)(F)F)c1 (stereo not shown) [Compound I-428] | 1000 to 10000 |
